The values that follow come from US20230073777A1, “CYCLIC-AMP RESPONSE ELEMENT BINDING PROTEIN (CBP) AND/OR ADENOVIRAL E1A BINDING PROTEIN OF 300 KDA (P300) DEGRADATION COMPOUNDS AND METHODS OF USE” (CULLGEN (SHANGHAI), INC., priority 2019, published 2023).

In assay [1] the target is P300 (Homo sapiens, UniProt Q09472). Briefly: Immunoblotting of P300 protein levels in LNCaP or 22RV1 cells. Details: LNCaP or 22RV1 cells that express CBP/P300 proteins were treated with GNE-781 or the bivalent compounds; endogenous in cells; host or cells: LNCaP (clone FGC) or 22RV1 cells. In kind it is cell-based. The following applies: percentage of inhibition of p300 at 10 nM (Table 3); read-out: Degradation (10 nM). Summed up:
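P300/CBP levels quantified by chemiluminescent immunoblot band densitometry, normalized against tubulin or vinculin loading controls. Lysates came from LNCaP or 22RV1 cells exposed to compounds or DMSO vehicle for indicated times.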
(In general: In western blotting, separated proteins are transferred to a membrane and probed.)

The subject of assay [2] is LNCaP cells. Briefly: LNCaP cell viability assay (CellTiter-Glo). It counts as cell-based. To be noted: Homo sapiens, 72 h; LNCaP prostate cancer cell viability inhibition, 3 days, CellTiter-Glo (Table 3). Summed up:
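Three-day treatment of LNCaP cells (5000 per well) across a 12-point, 3-fold dilution series starting at 10 μM. ATP luminescence (CellTiter-Glo) relative to untreated controls gave dose-response curves fitted nonlinearly for IC50.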

SMILES strings stand for the structures.

Sequence of P300 (Q09472 whole entry): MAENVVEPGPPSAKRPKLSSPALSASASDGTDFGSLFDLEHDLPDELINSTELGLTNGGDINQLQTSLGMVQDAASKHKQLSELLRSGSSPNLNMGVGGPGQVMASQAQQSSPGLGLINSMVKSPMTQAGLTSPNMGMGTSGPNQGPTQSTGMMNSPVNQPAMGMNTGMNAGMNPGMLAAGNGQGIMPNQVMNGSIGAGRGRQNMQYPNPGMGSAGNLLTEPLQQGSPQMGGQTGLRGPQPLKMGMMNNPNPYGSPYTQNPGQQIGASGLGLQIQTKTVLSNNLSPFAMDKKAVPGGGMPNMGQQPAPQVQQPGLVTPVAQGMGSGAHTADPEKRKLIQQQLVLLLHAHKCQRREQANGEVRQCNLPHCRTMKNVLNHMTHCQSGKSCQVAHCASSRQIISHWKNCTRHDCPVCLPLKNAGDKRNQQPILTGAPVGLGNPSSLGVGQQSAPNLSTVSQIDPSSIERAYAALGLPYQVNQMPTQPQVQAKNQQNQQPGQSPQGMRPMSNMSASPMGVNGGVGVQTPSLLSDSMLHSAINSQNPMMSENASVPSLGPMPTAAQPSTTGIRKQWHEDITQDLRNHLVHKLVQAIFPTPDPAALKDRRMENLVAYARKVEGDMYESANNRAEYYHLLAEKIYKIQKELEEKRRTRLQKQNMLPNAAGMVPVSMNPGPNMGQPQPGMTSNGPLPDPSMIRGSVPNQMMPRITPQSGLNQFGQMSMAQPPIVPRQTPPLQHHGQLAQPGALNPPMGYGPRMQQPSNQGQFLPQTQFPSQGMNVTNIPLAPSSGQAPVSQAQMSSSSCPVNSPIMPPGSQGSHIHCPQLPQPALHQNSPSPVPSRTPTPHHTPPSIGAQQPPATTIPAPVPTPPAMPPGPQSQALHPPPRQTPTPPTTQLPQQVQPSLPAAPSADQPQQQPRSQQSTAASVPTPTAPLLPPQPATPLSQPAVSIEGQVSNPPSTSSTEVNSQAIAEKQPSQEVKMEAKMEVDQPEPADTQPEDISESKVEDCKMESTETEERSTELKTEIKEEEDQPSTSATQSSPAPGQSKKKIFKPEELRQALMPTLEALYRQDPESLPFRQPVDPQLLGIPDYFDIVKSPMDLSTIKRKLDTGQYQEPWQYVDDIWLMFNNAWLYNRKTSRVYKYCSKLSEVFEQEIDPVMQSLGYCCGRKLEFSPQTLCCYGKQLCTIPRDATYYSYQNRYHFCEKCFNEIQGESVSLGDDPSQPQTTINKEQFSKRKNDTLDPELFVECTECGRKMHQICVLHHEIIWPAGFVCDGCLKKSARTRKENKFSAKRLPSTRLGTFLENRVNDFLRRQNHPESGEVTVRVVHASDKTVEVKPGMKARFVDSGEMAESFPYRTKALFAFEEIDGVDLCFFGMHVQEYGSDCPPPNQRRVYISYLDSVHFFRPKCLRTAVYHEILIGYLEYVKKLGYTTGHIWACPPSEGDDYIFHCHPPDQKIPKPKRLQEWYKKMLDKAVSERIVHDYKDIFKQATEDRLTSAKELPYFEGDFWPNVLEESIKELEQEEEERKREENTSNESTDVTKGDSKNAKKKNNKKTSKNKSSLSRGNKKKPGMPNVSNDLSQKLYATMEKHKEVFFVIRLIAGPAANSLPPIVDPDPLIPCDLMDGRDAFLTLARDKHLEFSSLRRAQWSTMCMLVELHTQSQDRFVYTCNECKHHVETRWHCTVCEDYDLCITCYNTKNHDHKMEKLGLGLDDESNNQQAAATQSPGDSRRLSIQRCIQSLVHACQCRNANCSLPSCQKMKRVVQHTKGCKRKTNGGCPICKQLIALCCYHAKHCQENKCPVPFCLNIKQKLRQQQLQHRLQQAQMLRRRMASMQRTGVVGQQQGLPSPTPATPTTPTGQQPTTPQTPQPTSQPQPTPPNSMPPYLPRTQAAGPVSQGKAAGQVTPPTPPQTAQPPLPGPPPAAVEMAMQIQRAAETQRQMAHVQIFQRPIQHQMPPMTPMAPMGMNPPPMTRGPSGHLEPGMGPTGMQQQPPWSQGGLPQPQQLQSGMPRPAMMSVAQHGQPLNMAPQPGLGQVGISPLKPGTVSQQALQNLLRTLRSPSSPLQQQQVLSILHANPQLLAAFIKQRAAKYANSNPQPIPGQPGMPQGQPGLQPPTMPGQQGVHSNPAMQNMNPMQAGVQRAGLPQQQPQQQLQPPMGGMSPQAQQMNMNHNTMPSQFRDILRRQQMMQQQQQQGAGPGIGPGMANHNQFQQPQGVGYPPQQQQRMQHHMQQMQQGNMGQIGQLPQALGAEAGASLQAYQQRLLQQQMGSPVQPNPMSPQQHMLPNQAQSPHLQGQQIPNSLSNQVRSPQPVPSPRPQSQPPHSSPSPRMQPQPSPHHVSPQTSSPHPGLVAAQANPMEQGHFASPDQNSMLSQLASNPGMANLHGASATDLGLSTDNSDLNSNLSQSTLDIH

As usually defined, the IC50 is the concentration needed to halve the response being measured. Read a low IC50 as inhibition by little substance. For the molecule `CC(=O)N1CCc2c(c(N3CCCc4cc(-c5cnn(C)c5)c(C(F)F)cc43)nn2C2CCN(CC3CCN(CC#Cc4cccc5c4C(=O)N(C4CCC(=O)NC4=O)C5=O)CC3)CC2)C1` (stereo not drawn) [P-150, 4-(3-(4-((4-(5-Acetyl-3-(7-(difluoromethyl)-6-(1-methyl-1H-pyrazol-4-yl)-3,4-dihydroquinolin-1(2H)-yl)-4,5,6,7-tetrahydro-1H-pyrazolo[4,3-c]pyridin-1-yl)piperidin-1-yl)methyl)piperidin-1-yl)prop-1-yn-1-yl)-2-(2,6-dioxopiperidin-3-yl)isoindoline-1,3-dione], the inhibition at 0.01 µM in assay [1] is above 80%. In assay [2], this molecule yielded an IC50 of 191 nM.
Take `CC(=O)N1CCc2c(c(N3CCCc4cc(-c5cnn(C)c5)c(C(F)F)cc43)nn2C2CCN(C(=O)CCCCCNc3cccc4nnn(C5CCC(=O)NC5=O)c(=O)c34)CC2)C1` (stereo not drawn) [P-151, 3-(5-((6-(4-(5-acetyl-3-(7-(difluoromethyl)-6-(1-methyl-1H-pyrazol-4-yl)-3,4-dihydroquinolin-1(2H)-yl)-4,5,6,7-tetrahydro-1H-pyrazolo[4,3-c]pyridin-1-yl)piperidin-1-yl)-6-oxohexyl)amino)-4-oxobenzo[d][1,2,3]triazin-3(4H)-yl)piperidine-2,6-dione]: the inhibition at 0.01 µM in assay [1] is above 80%. Moreover, in assay [2], the IC50 came out at 7.5 nM.
On the same counts, the results for `CC(=O)N1CCc2c(c(N3CCCc4cc(-c5cnn(C)c5)c(C(F)F)cc43)nn2C2CCN(C(=O)CCCCCCNc3cccc4nc(C)n(C5CCC(=O)NC5=O)c(=O)c34)CC2)C1` (stereo not drawn) [P-152, 3-(5-((7-(4-(5-Acetyl-3-(7-(difluoromethyl)-6-(1-methyl-1H-pyrazol-4-yl)-3,4-dihydroquinolin-1(2H)-yl)-4,5,6,7-tetrahydro-1H-pyrazolo[4,3-c]pyridin-1-yl)piperidin-1-yl)-7-oxoheptyl)amino)-2-methyl-4-oxoquinazolin-3(4H)-yl)piperidine-2,6-dione] are below 20% and 169 nM.
Taken in the same sequence, the figures for `CC(=O)N1CCc2c(c(N3CCCc4cc(-c5cnn(C)c5)c(C(F)F)cc43)nn2C2CCN(C(=O)CCCCCCNc3cccc4nnn(C5CCC(=O)NC5=O)c(=O)c34)CC2)C1` (stereo not drawn) [P-153, 3-(5-((7-(4-(5-acetyl-3-(7-(difluoromethyl)-6-(1-methyl-1H-pyrazol-4-yl)-3,4-dihydroquinolin-1(2H)-yl)-4,5,6,7-tetrahydro-1H-pyrazolo[4,3-c]pyridin-1-yl)piperidin-1-yl)-7-oxoheptyl)amino)-4-oxobenzo[d] [1,2,3]triazin-3 (4H)-yl)piperidine-2,6-dione] were above 80% and 3.7 nM.
On the same counts, the results for `CC(=O)N1CCc2c(c(N3CCCc4cc(-c5cnn(C)c5)c(C(F)F)cc43)nn2C2CCN(C(=O)CCCCNc3cccc4nc(C)n(C5CCC(=O)NC5=O)c(=O)c34)CC2)C1` (stereo not drawn) [P-154, 3-(5-((5-(4-(5-Acetyl-3-(7-(difluoromethyl)-6-(1-methyl-1H-pyrazol-4-yl)-3,4-dihydroquinolin-1(2H)-yl)-4,5,6,7-tetrahydro-1H-pyrazolo[4,3-c]pyridin-1-yl)piperidin-1-yl)-5-oxopentyl)amino)-2-methyl-4-oxoquinazolin-3(4H)-yl)piperidine-2,6-dione] are 20 to 50% and above 1000 nM.
`CC(=O)N1CCc2c(c(N3CCCc4cc(-c5cnn(C)c5)c(C(F)F)cc43)nn2C2CCN(C(=O)CCCCNc3cccc4nnn(C5CCC(=O)NC5=O)c(=O)c34)CC2)C1` (stereo not drawn) [P-155, 3-(5-((5-(4-(5-acetyl-3-(7-(difluoromethyl)-6-(1-methyl-1H-pyrazol-4-yl)-3,4-dihydroquinolin-1(2H)-yl)-4,5,6,7-tetrahydro-1H-pyrazolo[4,3-c]pyridin-1-yl)piperidin-1-yl)-5-oxopentyl)amino)-4-oxobenzo[d][1,2,3]triazin-3(4H)-yl)piperidine-2,6-dione]: in assay [1], the inhibition at 0.01 µM fell in the range of 50 to 80%. In assay [2], this molecule returned an IC50 of 22.3 nM.
Taken in the same sequence, the figures for `CC(=O)N1CCc2c(c(N3CCCc4cc(-c5cnn(C)c5)c(C(F)F)cc43)nn2C2CCN(C(=O)CCC3CN(Cc4cccc5c4C(=O)N(C4CCC(=O)NC4=O)C5=O)C3)CC2)C1` (stereo not drawn) [P-156, 4-((3-(3-(4-(5-Acetyl-3-(7-(difluoromethyl)-6-(1-methyl-1H-pyrazol-4-yl)-3,4-dihydroquinolin-1(2H)-yl)-4,5,6,7-tetrahydro-1H-pyrazolo[4,3-c]pyridin-1-yl)piperidin-1-yl)-3-oxopropyl)azetidin-1-yl)methyl)-2-(2,6-dioxopiperidin-3-yl)isoindoline-1,3-dione] were below 20% and above 500 nM.
Taken in the same sequence, the figures for `CC(=O)N1CCc2c(c(N3CCCc4cc(-c5cnn(C)c5)c(C(F)F)cc43)nn2C2CCN(CCN3CCC(CCc4cccc5c4C(=O)N(C4CCC(=O)NC4=O)C5=O)CC3)CC2)C1` (stereo not drawn) [P-157, 4-(2-(1-(2-(4-(5-acetyl-3-(7-(difluoromethyl)-6-(1-methyl-1H-pyrazol-4-yl)-3,4-dihydroquinolin-1(2H)-yl)-4,5,6,7-tetrahydro-1H-pyrazolo[4,3-c]pyridin-1-yl)piperidin-1-yl)ethyl)piperidin-4-yl)ethyl)-2-(2,6-dioxopiperidin-3-yl)isoindoline-1,3-dione] were 50 to 80% and 3.2 nM.
Taken in the same sequence, the figures for `CC(=O)N1CCc2c(c(N3CCCc4cc(-c5cnn(C)c5)c(C(F)F)cc43)nn2C2CCN(C(=O)CN3CC(CNc4cccc5c4C(=O)N(C4CCC(=O)NC4=O)C5=O)C3)CC2)C1` (stereo not drawn) [P-158, 4-(((1-(2-(4-(5-Acetyl-3-(7-(difluoromethyl)-6-(1-methyl-1H-pyrazol-4-yl)-3,4-dihydroquinolin-1(2H)-yl)-4,5,6,7-tetrahydro-1H-pyrazolo[4,3-c]pyridin-1-yl)piperidin-1-yl)-2-oxoethyl)azetidin-3-yl)methyl)amino)-2-(2,6-dioxopiperidin-3-yl)isoindoline-1,3-dione] were below 20% and 90.1 nM.
As to `CC(=O)N1CCc2c(c(N3CCCc4cc(-c5cnn(C)c5)c(C(F)F)cc43)nn2C2CCN(C(=O)CCCCCCCNc3cccc4c3n(C)c(=O)n4C3CCC(=O)NC3=O)CC2)C1` (stereo not drawn) [P-159, 3-(4-((8-(4-(5-acetyl-3-(7-(difluoromethyl)-6-(1-methyl-1H-pyrazol-4-yl)-3,4-dihydroquinolin-1(2H)-yl)-4,5,6,7-tetrahydro-1H-pyrazolo[4,3-c]pyridin-1-yl)piperidin-1-yl)-8-oxooctyl)amino)-3-methyl-2-oxo-2,3-dihydro-1H-benzo[d]imidazol-1-yl)piperidine-2,6-dione], the inhibition at 0.01 µM in assay [1] was above 80%. Moreover, the IC50 in assay [2] is 0.2 nM.
Taken in the same sequence, the figures for `CC(=O)N1CCc2c(c(N3CCCc4cc(-c5cnn(C)c5)c(C(F)F)cc43)nn2C2CCN(C(=O)CCCCCCCCNc3cccc4c3n(C)c(=O)n4C3CCC(=O)NC3=O)CC2)C1` (stereo not drawn) [P-160, 3-(4-((9-(4-(5-acetyl-3-(7-(difluoromethyl)-6-(1-methyl-1H-pyrazol-4-yl)-3,4-dihydroquinolin-1(2H)-yl)-4,5,6,7-tetrahydro-1H-pyrazolo[4,3-c]pyridin-1-yl)piperidin-1-yl)-9-oxononyl)amino)-3-methyl-2-oxo-2,3-dihydro-1H-benzo[d]imidazol-1-yl)piperidine-2,6-dione] were above 80% and 0.2 nM.
Turning to `CC(=O)N1CCc2c(c(N3CCCc4cc(-c5cnn(C)c5)c(C(F)F)cc43)nn2C2CCN(C(=O)CCCCCCCNc3ccc4c(c3)n(C)c(=O)n4C3CCC(=O)NC3=O)CC2)C1` (stereo not drawn) [P-161], the inhibition at 0.01 µM in assay [1] was above 80%. In addition, the IC50 in assay [2] was 0.1 nM.
